No end group written: not given here.

Holding throughout (type): cell-based, mouse
Test [1] has as its system C2C12 cells. Description: mRNA expression of myodifferentiation and sarcopenia factors (real-time PCR). The conditions noted are these: C2C12 myodifferentiation, peptide-treated vs untreated. The protocol:
(§1) After adding 1 ml of TRIzol™ reagent, the cells were crushed using a sonicator. After centrifugation of the crushed sample (12,000 rpm, 10 min, 4° C.), the supernatant was transferred to a new tube, added with 200 μl of chloroform, and left at room temperature for 10 minutes. After 10 minutes, centrifugation (12,000 rpm, 10 min, 4° C.) was performed, yielded a transparent supernatant. Next, 500 μl of isopropanol was added, the mixture was left for 10 minutes, and centrifugation was performed to obtain RNA pellets. After washing by adding 70% ethanol (distilled water treated with ethanol+diethylpyrocarbonate (hereinafter referred to as DEPC)) to the RNA pellets, complete removal and drying were followed. The dried transparent RNA was added with DEPC-treated distilled water and then stored at −80° C. Total RNA volume was measured by nanodrop, and the 18s and 28s bands were detected in 1.2% agarose gel. cDNA was synthesized with 2 μg of total RNA, random hexamer primers, and reverse transcriptase (25° C.: 10 min, 37° C.: 120 min, 85° C.: 5 min).
(§2) Real-time PCR (RT-PCR) was performed for detecting gene expression. For observation of real-time gene expression, gene expression was analyzed using the Power SYBR Green PCR Master Mix, which includes fluorescent materials of SYBR green (7500 Real-time PCR system). The PCR primer was designed with Primer 3 software (http://frodo.wi.mit.edu) according to the nucleotide sequence secured from NCBI GenBank. PCR was performed 40 times at 95° C. for 10 minutes, again at 95° C. for 33 seconds, at gene primer temperature (tm) for 33 seconds, and at 72° C. for 33 seconds. Gene expression values were analyzed through the analysis of c(t) values obtained through real-time PCR analysis (fold change 2-^ΔΔCt formula). Setting the gene expression value of the untreated cells to 1, the gene expression value of the treated cells was calculated. In the analysis of gene c(t) values, normalization was conducted with the glyceraldehyde-3-phosphate dehydrogenase (GAPDH).
In general terms: In qPCR the cycle at which signal appears reflects the starting amount.

The test system of test [2] is C2C12 cells. In words: Protein expression of myodifferentiation and sarcopenia factors (Western blot, immunocytochemistry). The settings on record: C2C12 myodifferentiation, peptide-treated vs untreated. The procedure: The medium of cultured C2C12 cells was removed and washed once with PBS. The washed cells were treated with 4% formaldehyde (Sigma), fixed for 15 minutes, then washed using PBS, added with 0.2% trypton X-100 (Sigma), and left for 5 minutes. After washing again using PBS, adding 1% normal goat serum, and leaving for 30 minutes, the primary antibody (MYOD, myogenin (MYOG):myosin light chain (MYL2); 1:50) was added to carry out a reaction at 4° C. for 14 hours. The antibodies were removed, washing was performed 3 times with PBS for 10 minutes, and then the cells were left with secondary antibody (Alexa Fluor 488 goat anti-Mouse & rabbit SFX kit t) for 1 hour. After 1 hour, the antibodies were removed, washing was performed with PBS for 10 minutes, the nuclei were stained with 4′,6-diamidino-2-phenylindol (DAPI), and the expression of the proteins was observed using fluorescence microscopy.
(1) The medium of cultured C2C12 cells was removed, followed by washing with PBS. After adding LIPA buffer and protease inhibitor to the washed cells, the proteins included in the supernatant were collected after centrifugation for 10 minutes at 12000 rpm. 40 μg of the extracted proteins were subjected to electrophoresis in 8 to 10% acrylamide gel and then transferred to a polyvinylidene fluoride (PVDF) membrane (Milipore). These were blocked with 3% skim milk or bovine serum albumin (BSA) at room temperature for 1 hour. Afterwards, primary antibody diluted in 1% skim milk or BSA (Pax7; 1:500, MYOD; 1:500, MYOG; 1:400, MYL2; 1:1000, MYH; 1:500, MSTN; 1:1000, β-actin; 1:1000, MuRF1; 1:400, and Atrogin; 1:1:400) was added and reacted at 4° C. for over 16 hours. After 16 hours, cells were washed three times with TBST (Tris-buffered saline with Tween 20) and reacted with secondary antibody with horseradish peroxidase (HRP) conjugated at room temperature for 1 hour. It was washed three times with TBST and developed after adding Super Signal West Pico Chemiluminescent Substrate.

The test system of test [3] is C2C12 cells. In words: Scratch experiment, degree of cell recovery. The settings on record: C2C12, 1000 nM peptide, 1 day in proliferation medium. The protocol: When the C2C12 cells were 100% grown, cells were scratches on the surface, treated with 1000 nM MIF1 or Ac-MIF1 peptides, and cultured for 1 day, followed by observation for a degree of cell recovery.
Test [4] has as its system 3T3L1 cells. Description: Expression of FMOD, MSTN and lipogenesis-related mRNAs and proteins in 3T3L1 cells. The settings on record: 3T3L1, Ac-MIF1 treated vs untreated; FIG. 13C. The procedure:
as §1, §2
(2) The medium of cultured 3T3L1 cells was removed and washed with PBS. After adding LIPA buffer and protease inhibitor to the washed cells, the proteins included in the supernatant were collected after centrifugation at 12000 rpm for 10 minutes. 40 μg of the extracted proteins were subjected to electrophoresis in 8 to 10% acrylamide gel and then transferred to a polyvinylidene fluoride (PVDF) membrane (Milipore). These were blocked with 3% skim milk or bovine serum albumin (BSA) at room temperature for 1 hour. Afterwards, primary antibody diluted in 1% skim milk or BSA (MSTN; 1:1000, 13-actin; 1:1000, CD36; 1:500, CD163; 1:500, FMOD; 1:400, and PPARγ; 1:500) was added and reacted at 4° C. for over 16 hours. After 16 hours, they were washed three times with TBST (Tris-buffered saline with Tween 20) and reacted with secondary antibody conjugated with horseradish peroxidase (HRP) at room temperature for 1 hour. It was washed three times with TBST and developed after adding Super Signal West Pico Chemiluminescent Substrate.

Regarding “Ac-VDFEAFWDWG [Ac-MIF1, MIF1 with N-terminus acetylated, 10 mer]”, in test [1], the “MYL2 mRNA expression” value is on record as “increased” and the “MYOD mRNA expression” value was “increased”. Also, in test [2], the ACVRIIB protein expression result is given as “reduced”, the Atrogin1 protein expression result is “reduced”, the MSTN protein expression entry is reported as “reduced” and the MYH protein expression entry is on record as “increased”. In addition, in test [2], the MYOD protein expression entry was “increased” and the MYOG protein expression entry is “increased”. Moreover, the “scratch recovery degree, increase compared to untreated cells” value in test [3] came to 28%. In addition, in test [4], the “CD36 expression (mRNA and protein)” value is “decreased”; the “CD163 expression (mRNA and protein)” value is “decreased”; the “FMOD expression (mRNA and protein)” value was “decreased”; the “MSTN expression (mRNA and protein)” value is “decreased”. Further, the “PPARγ expression (mRNA and protein)” value in test [4] is recorded as “decreased”.

For the origin of these results see patent US20250090626A1, “NEW PEPTIDE AND USES THEREOF” (Neo Cremar Co., Ltd., priority 2021, published 2025).
